The source of these data is ChEMBL document CHEMBL2380264, “Synthesis and antitumor activity of 1,3,4-oxadiazole possessing 1,4-benzodioxan moiety as a novel class of potent methionine aminopeptidase type II inhibitors” (Bioorg Med Chem Lett, 2013).

The nature of data set [1]: Cytotoxicity against HUVEC after 24 hrs by MTT assay. The format is cell-based. The conditions noted are these: human, HUVEC cells. Background: Formazan colour is commonly taken as a measure of viable cells.
The subject of data set [2] is HUVEC. The data set is described as follows: Antiproliferative against HUVEC after 48 hrs by MTT assay. The conditions noted are these: Homo sapiens.
For data set [3], the target named is Methionine aminopeptidase 2 (Homo sapiens, UniProt P50579). The data set is described as follows: Inhibition of MetAP2 (unknown origin) after 4 hrs.
Data set [4] relates to HUVEC. Briefly: Induction of apoptosis in HUVEC after 24 hrs by annexin V-FITC/propidium iodide staining-based FACS flow cytometric analysis. The format is functional, cell-based. The conditions noted are these: Homo sapiens. (In general: Flow cytometry measures light scatter and fluorescence of single cells or particles in a stream.)
For data set [5], the system named is HUVEC. The data set is described as follows: Induction of apoptosis in HUVEC assessed as viable cells at 4 uM after 24 hrs by annexin V-FITC/propidium iodide staining-based FACS flow cytometric analysis (reference value: 96.26%). The format is functional. The conditions noted are these: Homo sapiens, read-out: Activity.
Data set [6] relates to HUVEC. Briefly: Induction of apoptosis in HUVEC assessed as viable cells at 2 uM after 24 hrs by annexin V-FITC/propidium iodide staining-based FACS flow cytometric analysis (reference value: 96.26%). In kind it is functional. The conditions noted are these: Homo sapiens, read-out: Activity.
Data set [7] deals with HUVEC. Briefly: Induction of apoptosis in HUVEC assessed as viable cells at 1 uM after 24 hrs by annexin V-FITC/propidium iodide staining-based FACS flow cytometric analysis (reference value: 96.26%). In kind it is functional. The conditions noted are these: Homo sapiens, read-out: Activity.
The subject of data set [8] is HUVEC. Briefly: Induction of apoptosis in HUVEC assessed as viable cells at 0.5 uM after 24 hrs by annexin V-FITC/propidium iodide staining-based FACS flow cytometric analysis (reference value: 96.26%). The format is functional. The conditions noted are these: Homo sapiens, read-out: Activity.
Data set [9] deals with HUVEC. The data set is described as follows: Induction of apoptosis in HUVEC assessed as early apoptotic cells at 4 uM after 24 hrs by annexin V-FITC/propidium iodide staining-based FACS flow cytometric analysis (reference value: 0.02%). In kind it is functional, Homo sapiens.
The subject of data set [10] is HUVEC. Briefly: Induction of apoptosis in HUVEC assessed as early apoptotic cells at 2 uM after 24 hrs by annexin V-FITC/propidium iodide staining-based FACS flow cytometric analysis (reference value: 0.02%). In kind it is functional, Homo sapiens.
Data set [11] concerns HUVEC. The data set is described as follows: Induction of apoptosis in HUVEC assessed as early apoptotic cells at 1 uM after 24 hrs by annexin V-FITC/propidium iodide staining-based FACS flow cytometric analysis (reference value: 0.02%). The format is functional, Homo sapiens.
Data set [12] deals with HUVEC. Briefly: Induction of apoptosis in HUVEC assessed as early apoptotic cells at 0.5 uM after 24 hrs by annexin V-FITC/propidium iodide staining-based FACS flow cytometric analysis (reference value: 0.02%). In kind it is functional, Homo sapiens.
Data set [13] deals with HUVEC. Briefly: Induction of apoptosis in HUVEC assessed as late apoptotic cells at 4 uM after 24 hrs by annexin V-FITC/propidium iodide staining-based FACS flow cytometric analysis (reference value: 0.09%). In kind it is functional, Homo sapiens.
The subject of data set [14] is HUVEC. The data set is described as follows: Induction of apoptosis in HUVEC assessed as late apoptotic cells at 2 uM after 24 hrs by annexin V-FITC/propidium iodide staining-based FACS flow cytometric analysis (reference value: 0.09%). The format is functional, Homo sapiens.
Data set [15] concerns HUVEC. The data set is described as follows: Induction of apoptosis in HUVEC assessed as late apoptotic cells at 1 uM after 24 hrs by annexin V-FITC/propidium iodide staining-based FACS flow cytometric analysis (reference value: 0.09%). The format is functional, Homo sapiens.
Data set [16] relates to HUVEC. The data set is described as follows: Induction of apoptosis in HUVEC assessed as late apoptotic cells at 0.5 uM after 24 hrs by annexin V-FITC/propidium iodide staining-based FACS flow cytometric analysis (reference value: 0.09%). In kind it is functional, Homo sapiens.
The test system of data set [17] is HUVEC. Briefly: Induction of apoptosis in HUVEC assessed as dead cells at 4 uM after 24 hrs by annexin V-FITC/propidium iodide staining-based FACS flow cytometric analysis (reference value: 2.82%). The format is functional, Homo sapiens.
Data set [18] relates to HUVEC. The data set is described as follows: Induction of apoptosis in HUVEC assessed as dead cells at 1 uM after 24 hrs by annexin V-FITC/propidium iodide staining-based FACS flow cytometric analysis (reference value: 2.82%). In kind it is functional, Homo sapiens.
The test system of data set [19] is HUVEC. The data set is described as follows: Induction of apoptosis in HUVEC assessed as dead cells at 0.5 uM after 24 hrs by annexin V-FITC/propidium iodide staining-based FACS flow cytometric analysis (reference value: 2.82%). The format is functional, Homo sapiens.
Data set [20] has as its system HUVEC. The data set is described as follows: Induction of apoptosis in HUVEC assessed as dead cells at 2 uM after 24 hrs by annexin V-FITC/propidium iodide staining-based FACS flow cytometric analysis (reference value: 2.82%). The format is functional, Homo sapiens.

Sequence of Methionine aminopeptidase 2 (P50579 whole entry): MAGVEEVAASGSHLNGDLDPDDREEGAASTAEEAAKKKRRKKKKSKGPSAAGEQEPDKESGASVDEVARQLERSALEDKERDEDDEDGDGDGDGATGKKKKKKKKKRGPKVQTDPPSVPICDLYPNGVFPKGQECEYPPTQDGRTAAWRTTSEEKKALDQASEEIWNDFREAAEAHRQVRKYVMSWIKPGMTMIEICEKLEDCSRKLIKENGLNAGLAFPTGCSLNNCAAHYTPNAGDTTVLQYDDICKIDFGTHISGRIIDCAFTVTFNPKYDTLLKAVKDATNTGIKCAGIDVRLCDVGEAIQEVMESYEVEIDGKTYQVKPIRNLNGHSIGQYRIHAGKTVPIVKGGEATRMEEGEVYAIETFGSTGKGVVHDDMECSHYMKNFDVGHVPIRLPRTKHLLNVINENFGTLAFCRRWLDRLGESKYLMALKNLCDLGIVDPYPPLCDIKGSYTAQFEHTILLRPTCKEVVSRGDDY

As to `C(=C\c1nnc(-c2ccc3c(c2)OCCO3)o1)/c1ccccc1`, in data set [1], it took 209 µM to reach half-maximal cytotoxicity (CC50 at 24 h). The compound further registered an IC50 in data set [2] above 50 µM.
As to `O=[N+]([O-])c1ccc(/C=C/c2nnc(-c3ccc4c(c3)OCCO4)o2)cc1`, the CC50 at 24 h in [1] amounted to 299 µM. Besides, in data set [2], the IC50 turned out to be 32.1 µM.
The compound `Fc1ccc(/C=C/c2nnc(-c3ccc4c(c3)OCCO4)o2)cc1` registered a CC50 at 24 h in data set [1] of 325 µM. In data set [2], this compound registered an IC50 of 4.96 µM.
Taken in the same sequence, the figures for `Cc1cccc(/C=C/c2nnc(-c3ccc4c(c3)OCCO4)o2)c1` were 201 µM and 40.6 µM.
In [1], `Clc1ccccc1/C=C/c1nnc(-c2ccc3c(c2)OCCO3)o1` registered a CC50 at 24 h of 368 µM. Also, it took 7.71 µM to reach half-maximal inhibition in data set [2] (IC50).
On to `O=[N+]([O-])c1cccc(/C=C/c2nnc(-c3ccc4c(c3)OCCO4)o2)c1`, for which the CC50 at 24 h in data set [1] came to 309 µM. In data set [2], this compound returned an IC50 of 30.1 µM.
`Cc1ccccc1/C=C/c1nnc(-c2ccc3c(c2)OCCO3)o1` displayed a CC50 at 24 h in data set [1] of 356 µM. This compound also yielded an IC50 in data set [2] of 40.5 µM.
As for `Clc1ccc(/C=C/c2nnc(-c3ccc4c(c3)OCCO4)o2)cc1`, the CC50 at 24 h in data set [1] was 312 µM. This compound gave an IC50 in data set [2] of 8.03 µM.
Turning to `CO[C@@H]1[C@H](OC(=O)NC(=O)CCl)CC[C@]2(CO2)[C@H]1[C@@]1(C)O[C@@H]1CC=C(C)C` [O-CHLOROACETYLCARBAMOYLFUMAGILLOL], the results for the IC50 in [2] and in data set [3] were 1.96 µM and 1.32 µM, respectively.
In data set [1], `COc1ccc(/C=C/c2nnc(-c3ccc4c(c3)OCCO4)o2)cc1` displayed a CC50 at 24 h of 312 µM. In data set [2], this compound registered an IC50 above 50 µM.
Taken in the same sequence, the figures for `Brc1cccc(/C=C/c2nnc(-c3ccc4c(c3)OCCO4)o2)c1` were 322 µM and 13.5 µM.
Taken in the same sequence, the figures for `NNC(=O)c1ccc2c(c1)OCCO2` were 200 µM and above 50 µM.
In the same order, the values of `Cc1ccc(/C=C/c2nnc(-c3ccc4c(c3)OCCO4)o2)cc1` are 265 µM and 45.2 µM.
`COc1cccc(/C=C/c2nnc(-c3ccc4c(c3)OCCO4)o2)c1` yielded a CC50 at 24 h in data set [1] of 332 µM. For the same compound, in [2], the IC50 was above 50 µM.
Regarding `Fc1ccccc1/C=C/c1nnc(-c2ccc3c(c2)OCCO3)o1`, the Activity result in data set [4] is “Dose-dependent effect”; in [9] it was 8.64%; in data set [10], 3.01%; in data set [11], 2.69%; in data set [12], 1.07%; in data set [13] it was 25.61%. Also, the Activity in data set [14] is 16.4%; in data set [15] it was 14.01%; in data set [16] it was 5.22%; in data set [17], 26.23%; in [18] it was 26.68%; in data set [19], 30.26%. In addition, in data set [20], the Activity is recorded as 31.26%. Moreover, in data set [5], the viability at 4 µM came to 39.5%. The viability at 2 µM in data set [6] was found to be 49.3%. Also, the viability at 1 µM in [7] worked out at 56.6%. Moreover, the viability at 0.5 µM in data set [8] is 63.5%. Further, in data set [1], the CC50 at 24 h turned out to be 402 µM. Also, the IC50 in [2] is 1.16 µM.
The compound `Brc1ccccc1/C=C/c1nnc(-c2ccc3c(c2)OCCO3)o1` showed a CC50 at 24 h in data set [1] of 287 µM. The compound further registered an IC50 in [2] of 8.89 µM.
The compound `Fc1cccc(/C=C/c2nnc(-c3ccc4c(c3)OCCO4)o2)c1` gave a CC50 at 24 h in data set [1] of 295 µM. Moreover, in [2], the IC50 is 3.53 µM.
In data set [1], `O=[N+]([O-])c1ccccc1/C=C/c1nnc(-c2ccc3c(c2)OCCO3)o1` yielded a CC50 at 24 h of 323 µM. It took 25 µM to reach half-maximal inhibition in data set [2] (IC50).
In the same order, the values of `Brc1ccc(/C=C/c2nnc(-c3ccc4c(c3)OCCO4)o2)cc1` are 491 µM and 22.3 µM.

Usually CC50 stands for the concentration at which the toxic effect on the cells reaches its halfway point. The term IC50 denotes the concentration that inhibits the measured activity by half. A lower IC50 goes with greater potency in that assay.
